Test results taken from US5478828A, “Piperazinyl-and piperidinyl-cyclohexanols” (Bristol-Myers Squibb Company, priority 1995, dated 1995).
Where a name gives a salt, the structure may show the parent alone.

What follows are molecules tested against T1, D2 receptor (Bos taurus, UniProt P20288) (assay: In vitro receptor binding, D2). Details: in vitro; read-out: D2 receptor binding IC50.
T1 construct: from tissue
T1 sequence (P20288 whole entry): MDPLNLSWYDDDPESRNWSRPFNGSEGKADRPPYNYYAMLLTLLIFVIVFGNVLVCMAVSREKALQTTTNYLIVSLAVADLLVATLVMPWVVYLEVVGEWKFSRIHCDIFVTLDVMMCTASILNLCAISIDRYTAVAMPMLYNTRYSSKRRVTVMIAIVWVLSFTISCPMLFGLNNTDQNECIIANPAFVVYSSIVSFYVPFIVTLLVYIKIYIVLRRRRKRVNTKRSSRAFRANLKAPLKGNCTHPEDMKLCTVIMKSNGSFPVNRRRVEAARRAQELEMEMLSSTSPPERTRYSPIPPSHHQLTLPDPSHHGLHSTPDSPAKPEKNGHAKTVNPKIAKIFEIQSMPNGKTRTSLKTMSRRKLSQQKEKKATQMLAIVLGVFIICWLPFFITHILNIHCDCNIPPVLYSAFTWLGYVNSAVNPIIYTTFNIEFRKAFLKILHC
Protocol: In vitro IC50 test values for binding to the D2 receptor were determined for representative compounds of Formula I by the method of Burt, Creese, and Snyder, Molecular Pharmacology 12, 800 (1976); Creese, Burt, and Snyder, Science 196, 326 (1977); and Creese, Burt and Snyder, Science.

SMILES	IC50 [µM]
O[C@]1(c2ccc3c(c2)OCO3)CC[C@H](N2CCC(Cc3ccccc3)CC2)CC1 [Example 15, Z-1-(1,3-Benzodioxol-5-yl)-4-[4-(phenylmethyl)-1-piperidinyl]cyclohexanol]	> 1
COc1ccc([C@]2(O)CC[C@@H](N3CCC(Cc4ccccc4)CC3)CC2)cc1 [Example 16, Z-1-(4-Methoxyphenyl)-4-[4-(phenylmethyl)-1-piperidinyl]cyclohexanol]	2.71

Each molecule was assayed against 5-HT1A receptor (assay: In vitro receptor binding, 5-HT1A). Details: not given.
Protocol: In vitro IC50 test values for binding to the 5-HT1A receptor were determined for representative compounds of Formula I by the method of S. J. Peroutka, Brain Research 344, 167 (1985); with only minor modifications. Test IC50 values lower than 100 nM are considered to reflect activity at the 5-HT1A receptor.

SMILES	IC50 [µM]
O[C@]1(c2ccc3c(c2)OCO3)CC[C@H](N2CCC(Cc3ccccc3)CC2)CC1 [Example 15, Z-1-(1,3-Benzodioxol-5-yl)-4-[4-(phenylmethyl)-1-piperidinyl]cyclohexanol]	0.0054
COc1ccc([C@]2(O)CC[C@@H](N3CCC(Cc4ccccc4)CC3)CC2)cc1 [Example 16, Z-1-(4-Methoxyphenyl)-4-[4-(phenylmethyl)-1-piperidinyl]cyclohexanol]	0.0156
O[C@]1(c2ccc3c(c2)OCCO3)CC[C@@H](N2CCN(Cc3ccccc3)CC2)CC1 [Example 20-E, E-1-(1,4-Benzodioxan-6-yl)-4-[4-(phenylmethyl)-1-piperazinyl]cyclohexanol]	0.0053
O[C@]1(c2ccc3c(c2)OCO3)CC[C@H](N2CCN(Cc3cccc(F)c3)CC2)CC1 [Example 22, Z-1-(1,3-Benzodioxol-5-yl)-4-[4-[(3-fluorophenyl)methyl]-1-piperazinyl]cyclohexanol]	0.0134
O[C@]1(c2ccc3c(c2)OCO3)CC[C@H](N2CCN(Cc3cccs3)CC2)CC1 [Example 26, Z-1-(1,3-Benzodioxol-5-yl)-4-[4-(2-thienylmethyl)-1-piperazinyl]cyclohexano]	0.0191
O[C@]1(c2ccc3c(c2)OCO3)CC[C@H](N2CCN(Cc3ccccc3Cl)CC2)CC1 [Example 27, Z-1-(1,3-Benzodioxol-5-yl)-4-[4-[(2-chlorophenyl)methyl]-1-piperazinyl]cyclohexanol]	0.00185
O[C@]1(c2ccc3c(c2)OCO3)CC[C@H](N2CCN(Cc3cc(Cl)ccc3Cl)CC2)CC1 [Example 28, Z-1-(1,3-Benzodioxol-5-yl)-4-[4-[(2,5-dichlorophenyl)methyl]-1-piperazinyl]-cyclohexanol]	0.0006
O[C@]1(c2ccc3c(c2)OCO3)CC[C@H](N2CCN(Cc3cc(F)ccc3F)CC2)CC1 [Example 29, Z-1-(1,3-Benzodioxol-5-yl)-4-[4-[(2,5-difluorophenyl)methyl]-1-piperazinyl]-cyclohexanol]	0.0026
O[C@]1(c2ccc3c(c2)OCO3)CC[C@H](N2CCN(Cc3cccc(F)c3F)CC2)CC1 [Example 30, Z-1-(1,3-Benzodioxol-5-yl)-4-[4,[(2,3-difluorophenyl)methyl]-1-piperazinyl]-cyclohexanol]	0.0173
O[C@]1(c2ccc3c(c2)OCO3)CC[C@H](N2CCN(Cc3cc(F)cc(F)c3)CC2)CC1 [Example 31, Z-1-(1,3-Benzodioxol-5-yl)-4-[4-[(3,5-difluorophenyl)methyl]-1-piperazinyl]-cyclohexanol]	0.0211
O[C@]1(c2ccc3c(c2)OCO3)CC[C@H](N2CCN(Cc3ccccc3I)CC2)CC1 [Example 32, Z-1-(1,3-Benzodioxol-5-yl)-4-[4-[(2-iodophenyl)methyl]-1-piperazinyl]cyclohexanol]	0.0012
O[C@]1(c2ccc3c(c2)OCO3)CC[C@H](N2CCN(Cc3cccc4c3OCO4)CC2)CC1 [Example 33, Z-1-(1,3-Benzodioxol-5-yl)-4-[4-[(1,3-benzodioxo-4-yl)methyl]-1-piperazinyl]-cyclohexanol]	0.0349
COc1cccc(CN2CCN([C@H]3CC[C@](O)(c4ccc(F)cc4)CC3)CC2)c1 [Example 34, Z-1-(4-Fluorophenyl)-4-[4-[(3-methoxyphenyl)methyl]-1-piperazinyl]cyclohexanol]	0.0106
O[C@]1(c2ccc(F)cc2)CC[C@H](N2CCN(Cc3ccccc3Cl)CC2)CC1 [Example 35, Z-1-(4-Fluorophenyl)-4-[4-[(2-chlorophenyl)methyl]-1-piperazinyl]cyclohexanol]	0.0059
O[C@]1(c2ccc(C(F)(F)F)cc2)CC[C@H](N2CCN(Cc3ccccc3Cl)CC2)CC1 [Example 37, Z-1-[(4-Trifluoromethyl)phenyl]-4-[4-[(2-chlorophenyl)methyl]-1-piperazinyl]-cyclohexanol]	0.0258
COc1cccc(CN2CCN([C@H]3CC[C@](O)(c4ccc(C(F)(F)F)cc4)CC3)CC2)c1 [Example 38, Z-1-[(4-Trifluoromethyl)phenyl]-4-[4-[(3-methoxyphenyl)methyl]-1-piperazinyl]-cyclohexanol]	0.0356
COc1ccc(F)c(CN2CCN([C@H]3CC[C@](O)(c4ccc5c(c4)OCO5)CC3)CC2)c1 [Example 39, Z-1-(1,3-Benzodioxol-5-yl)-4-[4-[(2-fluoro-5-methoxyphenyl)methyl]-1-piperazinyl]cyclohexanol]	0.00075
COc1ccc(F)c(CN2CCN([C@H]3CC[C@](O)(c4ccc(F)cc4)CC3)CC2)c1 [Example 40, Z-1-(4-Fluorophenyl)-4,-[4,-[(2-fluoro-5-methoxyphenyl)methyl]-1piperazinyl]cyclohexanol]	0.00345
COc1cccc(CC2CCN([C@H]3CC[C@](O)(c4ccc5c(c4)OCCO5)CC3)CC2)c1 [Example 41, Z-1-(1,4-Benzodioxan-6-yl)-4-[4-[(3-methoxyphenyl)methyl]-1-piperidinyl]cyclohexanol]	0.0022
COc1cccc(CC2CCN([C@H]3CC[C@](O)(c4ccc5c(c4)OCO5)CC3)CC2)c1 [Example 42, Z-1-(1,3-Benzodioxol-5-yl)-4-[4-[(3-methoxyphenyl)methyl]-1-piperidinyl]cyclohexanol]	0.0044
O[C@]1(c2ccc3c(c2)OCO3)CC[C@H](N2CCC(Cc3cc(F)ccc3F)CC2)CC1 [Example 43, Z-1-(1,3-Benzodioxol-5-yl)-4-[4-[(2,5-difluorophenyl)methyl]-1-piperidinyl]cyclohexanol]	0.0049
COc1cccc(CC2CCN([C@H]3CC[C@](OC)(c4ccc5c(c4)OCCO5)CC3)CC2)c1 [Example 45, Z-1-[4-(1,4-Benzodioxan-6-yl)-4-methoxy-1-cyclohexyl]-4-[3-(methoxyphenyl)methyl]-piperidine fumarate]	0.0034
CO[C@]1(c2ccc3c(c2)OCO3)CC[C@H](N2CCC(Cc3cc(F)ccc3F)CC2)CC1 [Example 46, Z-1-[4-(1,3-Benzodioxol-5-yl)-4-methoxy-1-cyclohexyl]-4-[(2,5,-difluorophenyl)-methyl]piperidine fumarate]	0.0162
O[C@]1(c2ccc(F)cc2)CC[C@H](N2CCC(Cc3ccccc3)CC2)CC1 [Example 47, Z-1-(4-Fluorophenyl)-4-[4-(phenylmethyl)-1-piperidinyl]cyclohexanol]	0.0598
COc1cccc(CC2CCN([C@H]3CC[C@](O)(c4ccc(F)cc4)CC3)CC2)c1 [Example 48]	0.0319
O[C@]1(c2ccc(F)cc2)CC[C@H](N2CCC(Cc3cc(F)ccc3F)CC2)CC1 [Example 49, Z-1-(4-Fluorophenyl)-4-[4-[(2,5-difluorophenyl)methyl]-1-piperidinyl]cyclohexanol]	0.0576
O[C@]1(c2ccc3c(c2)OCO3)CC[C@H](N2CCN(Cc3ccccc3Br)CC2)CC1 [Example 50, Z-1-(1,3-Benzodioxol-5-yl)-4-[4-[(2-bromophenyl)methyl]-1-piperazinyl]cyclohexanol]	0.0012
O[C@]1(c2ccc3c(c2)OCO3)CC[C@H](N2CCN(C(c3ccccc3)c3ccccc3)CC2)CC1 [Example 51, Z-1-(1,3-Benzodioxol-5-yl)-4-[4-(diphenylmethyl)-1-piperazinyl]cyclohexanol]	0.0286
CC(c1ccccc1)N1CCN([C@H]2CC[C@](O)(c3ccc4c(c3)OCO4)CC2)CC1 (stereo partly shown) [Example 52, Z-1-(1,3-Benzodioxol-5-yl)-4-[4-(1-phenylethyl)-1-piperazinyl]cyclohexanol]	0.0181
